“Also recorded” adds a separate entry of the source.
Experiments:
[1] = molecular target: T1, serotonin transporters (SERT) (Homo sapiens, UniProt P31645); experiment: Brain SERT occupancy by PET with [11C]DASB tracer, Phase 1 single-dose study; format: in vivo; conditions: N = 3
T1 construct: from tissue; host or cells: living human brain (3 healthy adult male volunteers), PET with [11C]DASB
Source text: This study was a Phase 1, single-dose, randomized, open-label study using positron emission tomography (PET) and [^11C]DASB ([^11C]N,N-dimethyl-2-(2-amino-4-cyanophenylthio) benzylamine) as a PET tracer in 3 healthy, young, adult male volunteer subjects. Using PET imaging, uptake inhibitor effects may be measured based on the proportion of SERT sites blocked in the brain.
(§1) PET scans were done at baseline and at 2 and 7-hour post-dose via measurement of [^11C]DASB tracer binding. Periodic blood samples were collected for evaluation of (+)-1-(3,4-dichlorophenyl)-3-azabicyclo[3.1.0]hexane PK. Safety was monitored by clinical and laboratory evaluations, including vital signs, physical examination, clinical chemistry, hematology, urinalysis, and ECG.

[2] = Plasma concentration in Phase 1 single-dose PET study; format: in vivo, human; conditions: ~7 h after single oral dose of 150 mg, N = 3
Source text: as §1

[3] = Safety monitoring in Phase 1 single-dose PET study; format: in vivo, human; conditions: single oral dose of 150 mg
Source text: as §1

[4] = system: patients with Major Depressive Disorder; experiment: Phase 2 six week double-blind placebo-controlled study in patients with Major Depressive Disorder; format: in vivo, human; conditions: for CGI-I in comparison to placebo (in words): MITT n=56, MMRM
Source text: Subjects were identified who were between the ages of 18-65 (inclusive), and met criteria for Major Depressive Disorder in accordance with the Diagnostic and Statistical manual of Mental Disorders-IV-TR and confirmed by the MINI International Neuropsychiatric Interview. […] They were also required to have a BMI≤35 and body weight>45 kg at the Screening Visit. […] Subjects were required to refrain from taking antidepressants, anticonvulsants including gabapentin and pregabalin, neuroleptics, MAO inhibitors, barbiturates, benzodiazepines, stimulants, antipsychotics, lithium, anxiolytics and beta blockers starting two weeks prior to the study and continuing until after the follow-up visit. Subjects were evaluated for safety parameters prior to and throughout the trial by a variety of measures including electrocardiogram, physical examination, vital signs and body weight, and clinical laboratory testing including a lipid panel, CBC with differential and urinalysis. […] Efficacy was determined by measuring the change from baseline in the Montgomery-Åsberg Depression Rating Scale (MADRS), the HAMD-17, the Clinical Global Impression Global Improvement Scale (CGI-1), the Clinical Global Impression-Severity scale (CGI-S) and the Derogatis Interview for Sexual Functioning Self-Report (DISF-SR). […] Comparisons between treatment groups based on MADRS (the primary efficacy parameter), […] and CGI-S scores were analyzed using a mixed-repeated measures (MMRM) analysis model including factors for Subject, Visit, Treatment Arm and Baseline value as a covariate. Adjusted least-squares means from these models are presented. Comparisons between groups were made at each post-baseline visit using model-based contrasts and adjusted degrees of freedom. For these analyses no explicit data imputations were made prior to the analysis. Response and remission categorical data were analyzed using chi-square tests. Inferential analyses of safety data were conducted with ANOVA models or chi-square tests. Two-tail alpha was set to 0.05. All analyses were conducted using SAS version 9.2.

[5] = system: extracellular norepinephrine and dopamine in prefrontal cortex; conditions: Bymaster et al. 2002a; cited from earlier work
[6] = ~2 h after single oral dose of 150 mg
[7] = ~7 h after single oral dose of 150 mg
[8] = 100 mg, Visit 8, LOCF, Completers, 50% reduction or more of baseline total score
[9] = six week double-blind, MITT n=56, MMRM LS means

T1 sequence (P31645 whole entry): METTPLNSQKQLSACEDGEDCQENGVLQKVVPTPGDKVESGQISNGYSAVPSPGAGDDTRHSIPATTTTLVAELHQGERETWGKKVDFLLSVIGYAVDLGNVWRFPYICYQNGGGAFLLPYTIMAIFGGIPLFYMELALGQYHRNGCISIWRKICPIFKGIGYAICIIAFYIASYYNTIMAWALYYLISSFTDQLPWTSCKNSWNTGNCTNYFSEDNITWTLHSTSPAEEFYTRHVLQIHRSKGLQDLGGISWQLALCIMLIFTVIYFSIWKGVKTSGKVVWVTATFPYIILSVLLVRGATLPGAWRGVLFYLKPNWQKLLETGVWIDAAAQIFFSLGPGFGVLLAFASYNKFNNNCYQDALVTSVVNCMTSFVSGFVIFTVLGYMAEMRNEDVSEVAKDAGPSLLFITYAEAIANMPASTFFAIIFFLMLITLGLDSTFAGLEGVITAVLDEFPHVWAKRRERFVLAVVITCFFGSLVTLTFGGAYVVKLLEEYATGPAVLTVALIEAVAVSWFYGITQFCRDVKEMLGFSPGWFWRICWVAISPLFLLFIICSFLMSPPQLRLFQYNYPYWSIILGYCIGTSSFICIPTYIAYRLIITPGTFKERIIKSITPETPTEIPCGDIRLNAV

SMILES: Clc1ccc(C23CNCC2C3)cc1Cl (single isomer, unassigned; (+)) [(+)-1-(3,4-dichlorophenyl)-3-azabicyclo[3.1.0]hexane]
- Mean SERT Occupancy, Mean [1, 6]: approximately 48%
- Mean SERT Occupancy, Striatum [1, 6]: 48%
- Mean SERT Occupancy, Thalamus [1, 6]: 48%
- Mean SERT Occupancy, Striatum [1, 7]: 32%
- Mean SERT Occupancy, Thalamus [1, 7]: 33%
- Mean Plasma Concentration [2]: ~405 ng/mL
- discontinuation due to a clinical or laboratory adverse experience [3]: no subjects were discontinued
- laboratory safety tests [3]: no clinically meaningful changes
- physical examinations and ECGs [3]: no clinically meaningful changes from pre-dose evaluations
- vital sign measurements (blood pressure, pulse rate, respiratory rate, oral temperature) [3]: No dose-related changes
- serious adverse events ([3]; 3 healthy male subjects): No serious adverse events were reported
- total adverse events reported by one subject ([3]; rated definitely not related to study drug): 5
- tolerability ([4]; 50 mg/day then 100 mg/day): relatively well tolerated
- remission rates by CGI-S score of ≤2 compared to placebo (in words) ([4]; 100 mg, LOCF): significantly greater remission rates
- Response rate HAMD-17 [4, 8]: (11/20) 55.00%
- Response rate MADRS [4, 8]: (8/20) 40.00%
- Remission rate CGI-S ([4]; 100 mg, Visit 8, LOCF, Completers, CGI-S ≤ 2): (7/20) 35.00%
- Remission rate HAMD-17 ([4]; 100 mg, Visit 8, LOCF, Completers, HAMD-17 ≤ 7): (4/20) 20.00%
- Remission rate MADRS ([4]; 100 mg, Visit 8, LOCF, Completers, MADRS ≤ 12): (6/20) 30.00%
- anhedonia factor score of the MADRS compared to placebo (in words) ([4]; MITT n=56, MMRM LS means, listed as EB-1010): statistically significant improvement
- Anhedonia factor difference placebo vs drug ([4]; Visit 8, MMRM, MITT): 1.41
- CGI-I difference placebo vs drug ([4]; Visit 8, MMRM, MITT): 0.62
- CGI-S difference placebo vs drug ([4]; Visit 8, MMRM, MITT): 0.22
- HAMD-17 difference placebo vs drug ([4]; Visit 8, MMRM, MITT): 3.12
- MADRS difference placebo vs drug ([4]; Visit 8, MMRM, MITT): 3.83
- Anhedonia factor (LS Mean − SE) ([4]; Visit 8, MMRM, MITT, n = 30): 7.92 (0.50)
- CGI-I (LS Mean − SE) ([4]; Visit 8, MMRM, MITT, n = 30): 2.13 (0.20)
- CGI-S (LS Mean − SE) ([4]; Visit 8, MMRM, MITT, n = 30): 3.31 (0.15)
- HAMD-17 (LS Mean − SE) ([4]; Visit 8, MMRM, MITT, n = 30): 14.90 (1.40)
- overall statistical effect size (Cohen's d), MADRS total score ([4]; Week 6, vs placebo): −0.63
- discontinuation due to AEs ([4]; compared with placebo): Two patients in each treatment group discontinued the study early due to AEs
- heart rate, systolic or diastolic blood pressure compared to placebo ([4]; human, in vivo): did not result in significant increases
- serious AEs ([4]; human, in vivo): no serious AEs were reported
- weight gain ([4]; human, in vivo): not associated with significant weight gain
- percentage of patients who reported an adverse treatment event ([4]; placebo 39.28%): 30.30%
- CGI-I in comparison to placebo (in words) ([4]; six week double-blind): statistically significantly superior to placebo
- CGI-S in comparison to placebo (in words) [4, 9]: improvement
- HAM-D in comparison to placebo (in words) [4, 9]: decrease
- MADRS total score in comparison to placebo (in words) [4, 9]: statistically significantly superior
- MADRS total score in comparison to placebo (in words) ([4]; six week double-blind, MITT n=56, MMRM LS means, listed as EB-1010): decrease
- CGI-I in comparison to placebo (in words) ([4]; six week double-blind, listed as EB-1010): decrease
- efficacy in treating depression (in words) ([4]; titrated dose of 50 mg/day then 100 mg/day): effective for treatment of patients with MDD; also recorded: efficacious in treating depression

SMILES: CNCC[C@@H](Oc1ccccc1C)c1ccccc1 [atomoxetine]
- extracellular norepinephrine and dopamine concentrations in prefrontal cortex [5]: increased extracellular norepinephrine and dopamine concentrations
